Measurements from PubChem BioAssay AID330 (DTP/NCI, 2004).
Where “and” joins values, the source holds several entries; their conditions need not be identical. Equal entries are not always repeated. Toxic doses and inconclusive results are not listed. Rule for the calls: active = survival T/C of 150% or more; inactive = T/C below 125% in these data.

Test system: P388 leukemia ip, CD2F1 mice, survival T/C
Assay: NCI In Vivo Anticancer Drug Screen. Data for tumor model P388 Leukemia (intraperitoneal) in CD2F1 (CDF1) mice
Conditions: endpoint: median survival time, higher = longer survival
Outline: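 Mice carrying the transplanted tumor received test compound or vehicle. Survival was recorded in each group, and the value is the treated-group measurement divided by that of the vehicle-treated control group.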

[1] = dose: 60.0 mg/kg/injection, schedule: Q01DX005 (ip), vehicle: saline with Tween-80
[2] = dose: 120.0 mg/kg/injection, schedule: Q01DX005 (ip), vehicle: saline with Tween-80
[3] = dose: 240.0 mg/kg/injection, schedule: Q01DX005 (ip), vehicle: saline with Tween-80
[4] = dose: 50.0 mg/kg/injection, schedule: Q01DX005 (ip), vehicle: saline with Tween-80
[5] = dose: 50.0 mg/kg/injection, schedule: Q01DX009 (ip), vehicle: saline with Tween-80
[6] = dose: 100.0 mg/kg/injection, schedule: Q01DX009 (ip), vehicle: saline with Tween-80
[7] = dose: 200.0 mg/kg/injection, schedule: Q01DX009 (ip), vehicle: saline with Tween-80
[8] = dose: 25.0 mg/kg/injection, schedule: Q01DX009 (ip), vehicle: saline with Tween-80
[9] = dose: 50.0 mg/kg/injection, schedule: Q01DX009 (ip), vehicle: Klucel (hydroxypropylcellulose) (HPC)
[10] = dose: 100.0 mg/kg/injection, schedule: Q01DX009 (ip), vehicle: Klucel (hydroxypropylcellulose) (HPC)
[11] = dose: 200.0 mg/kg/injection, schedule: Q01DX009 (ip), vehicle: Klucel (hydroxypropylcellulose) (HPC)

Measured: T/C

CSC1NN=C(CCC(=O)Nc2ccc(C)cc2)O1 (stereo unspecified)
inactive: [1] 108 % of control | [2] 92 % of control | [3] 102 % of control

CCOC(=O)CNC(=O)OC(C)(C)C
inactive: [1] 103 % of control | [2] 100 % of control | [3] 108 % of control

CCCCC(=S)SSC(C)(C)C
inactive: dose: 12.5 mg/kg/injection, schedule: Q01DX005 (ip), vehicle: saline with Tween-80 108 % of control | dose: 25.0 mg/kg/injection, schedule: Q01DX005 (ip), vehicle: saline with Tween-80 115 % of control | [4] 100 % of control and 114 % of control

O/N=C1/CCCCC/C1=N/O
inactive: [5] 98 % of control | [6] 100 % of control | [7] 100 % of control | dose: 400.0 mg/kg/injection, schedule: Q01DX009 (ip), vehicle: saline with Tween-80 107 % of control

COC(=O)C/C(C(=O)OC)=C1\CCC2=C1N1CCCC1C2(CC(=O)OC)C(=O)OC (stereo unspecified)
inactive: dose: 12.5 mg/kg/injection, schedule: Q01DX001 (ip), vehicle: Klucel (hydroxypropylcellulose) (HPC) 100 % of control | dose: 25.0 mg/kg/injection, schedule: Q01DX001 (ip), vehicle: Klucel (hydroxypropylcellulose) (HPC) 99 % of control | dose: 50.0 mg/kg/injection, schedule: Q01DX001 (ip), vehicle: Klucel (hydroxypropylcellulose) (HPC) 99 % of control

NS(=O)(=O)c1ccc(NCc2cnc3ccccc3n2)cc1
inactive: dose: 5.0 mg/kg/injection, schedule: Q01DX009 (ip), vehicle: saline 87 % of control | dose: 10.0 mg/kg/injection, schedule: Q01DX009 (ip), vehicle: saline 94 % of control | dose: 20.0 mg/kg/injection, schedule: Q01DX009 (ip), vehicle: saline 94 % of control

O=C1OC(c2ccc(O)cc2)(c2ccc(O)cc2)c2ccccc21
inactive: dose: 100.0 mg/kg/injection, schedule: Q04DX002 (ip), vehicle: saline with Tween-80 99 % of control | dose: 200.0 mg/kg/injection, schedule: Q04DX002 (ip), vehicle: saline with Tween-80 103 % of control | dose: 400.0 mg/kg/injection, schedule: Q04DX002 (ip), vehicle: saline with Tween-80 93 % of control

COc1cccc2[nH]c(-c3ccccn3)nc12
inactive: [5] 95 % of control | [6] 104 % of control | [7] 95 % of control

CCC12OC(COc3ccccc3)CN1CCN2c1ccccc1 (stereo unspecified)
inactive: [1] 97 % of control | [2] 98 % of control

CC1=C(O)CC(/C(C)=C/Cl)OC1=O (stereo unspecified)
inactive: dose: 100.0 mg/kg/injection, schedule: Q04DX002 (ip), vehicle: Klucel (hydroxypropylcellulose) (HPC) 103 % of control | dose: 200.0 mg/kg/injection, schedule: Q04DX002 (ip), vehicle: Klucel (hydroxypropylcellulose) (HPC) 107 % of control | dose: 400.0 mg/kg/injection, schedule: Q04DX002 (ip), vehicle: Klucel (hydroxypropylcellulose) (HPC) 102 % of control

C1=Nc2ccccc2OCCOc2ccccc2N=Cc2ccccc2NCCNc2ccccc21
inactive: dose: 100.0 mg/kg/injection, schedule: Q04DX003 (ip), vehicle: saline 97 % of control | dose: 200.0 mg/kg/injection, schedule: Q04DX003 (ip), vehicle: saline 100 % of control

N#CNC1=C(C#N)C(c2ccccc2)CC(=O)N1 (stereo unspecified)
inactive: [1] 97 % of control | [2] 101 % of control | [3] 100 % of control

COc1ccc(CC2c3cc(OC)c(OC)cc3C=CN2C)cc1OC (stereo unspecified)
inactive: dose: 12.5 mg/kg/injection, schedule: Q01DX005 (ip), vehicle: Klucel (hydroxypropylcellulose) (HPC) 99 % of control | dose: 25.0 mg/kg/injection, schedule: Q01DX005 (ip), vehicle: Klucel (hydroxypropylcellulose) (HPC) 103 % of control | dose: 50.0 mg/kg/injection, schedule: Q01DX005 (ip), vehicle: Klucel (hydroxypropylcellulose) (HPC) 96 % of control

O=C(O)Cc1ccc(C2CCCCC2)cc1
inactive: dose: 100.0 mg/kg/injection, schedule: Q04DX003 (ip), vehicle: Klucel (hydroxypropylcellulose) (HPC) 90 % of control | dose: 200.0 mg/kg/injection, schedule: Q04DX003 (ip), vehicle: Klucel (hydroxypropylcellulose) (HPC) 100 % of control | dose: 400.0 mg/kg/injection, schedule: Q04DX003 (ip), vehicle: Klucel (hydroxypropylcellulose) (HPC) 100 % of control

CC(=O)N(Sc1ccccc1)c1ccccc1
inactive: [8] 110 % of control | [5] 106 % of control | [6] 103 % of control

COC1C(/C=[N+](\[O-])C2C(C3COC(C)(C)O3)OC3OC(C)(C)OC32)OC2OC(C)(C)OC21 (stereo unspecified)
inactive: [9] 100 % of control | [10] 103 % of control | [11] 105 % of control

CS(=O)(=O)/C=C/c1ccccc1
inactive: [5] 103 % of control | [6] 90 % of control | [7] 90 % of control

C=C(CO)CC(CC(=C)CCS(=O)(=O)c1ccccc1)S(=O)(=O)c1ccccc1 (stereo unspecified)
inactive: [1] 94 % of control | [2] 106 % of control | [3] 100 % of control

Nc1nnc2cc(Br)ccc2n1
inactive: [9] 102 % of control | [10] 99 % of control | [11] 100 % of control

CC(C)(CC#N)c1cc(CC(C)(C)c2cc(CC(C)(C)c3cc(CC(C)(C)C4(C)OCCO4)no3)no2)no1
inactive: dose: 30.0 mg/kg/injection, schedule: Q01DX005 (ip), vehicle: saline with Tween-80 87 % of control | [1] 90 % of control and 91 % of control | [2] 86 % of control | [3] 87 % of control

CC(NNC(=S)N1CCCC1)c1cccc[n+]1[O-] (stereo unspecified)
inactive: [4] 101 % of control | dose: 100.0 mg/kg/injection, schedule: Q01DX005 (ip), vehicle: saline with Tween-80 100 % of control | dose: 200.0 mg/kg/injection, schedule: Q01DX005 (ip), vehicle: saline with Tween-80 94 % of control

Nc1nc(-c2cccnc2)cc(-c2cc(-c3cccnc3)nc(N)n2)n1
inactive: dose: 60.0 mg/kg/injection, schedule: Q01DX005 (ip), vehicle: saline 96 % of control | dose: 120.0 mg/kg/injection, schedule: Q01DX005 (ip), vehicle: saline 100 % of control

O=C1OI(Cl)c2ccccc21
inactive: [1] 104 % of control | [2] 104 % of control

NC1CNC(C(=O)O)=C(CC(=O)O)C1=O (stereo unspecified)
inactive: dose: 4.25 mg/kg/injection, schedule: Q01DX005 (ip), vehicle: sodium bicarbonate 101 % of control | dose: 8.5 mg/kg/injection, schedule: Q01DX005 (ip), vehicle: sodium bicarbonate 99 % of control | dose: 17.0 mg/kg/injection, schedule: Q01DX005 (ip), vehicle: sodium bicarbonate 106 % of control | dose: 34.0 mg/kg/injection, schedule: Q01DX005 (ip), vehicle: sodium bicarbonate 99 % of control

CCOC(=O)C(C(=O)OCC)C1CCC2(C)CCC(=O)C=C2C1 (stereo unspecified)
inactive: [5] 95 % of control | [6] 100 % of control | [7] 105 % of control

[Cu].[NH-]C1CCCC2CCC[N-]C12.[NH-]C1CCCC2CCC[N-]C12 (stereo unspecified)
inactive: dose: 12.5 mg/kg/injection, schedule: Q04DX002 (ip), vehicle: saline with Tween-80 106 % of control

O=C(O)C1CSC(c2ccccc2)N1 (stereo unspecified)
inactive: dose: 12.5 mg/kg/injection, schedule: Q01DX009 (ip), vehicle: saline with Tween-80 100 % of control and 101 % of control | [8] 102 % of control and 103 % of control | [5] 100 % of control | [6] 100 % of control

NC(N)=N/N=C1\C/C(=N\N=C(N)N)c2cc3ccccc3cc21
inactive: dose: 12.5 mg/kg/injection, schedule: Q01DX001 (ip), vehicle: saline with Tween-80 105 % of control | dose: 25.0 mg/kg/injection, schedule: Q01DX001 (ip), vehicle: saline with Tween-80 102 % of control | dose: 25.0 mg/kg/injection, schedule: Q01DX001 (ip), vehicle: saline 103 % of control | dose: 50.0 mg/kg/injection, schedule: Q01DX001 (ip), vehicle: saline with Tween-80 91 % of control | dose: 50.0 mg/kg/injection, schedule: Q01DX001 (ip), vehicle: saline 98 % of control | dose: 100.0 mg/kg/injection, schedule: Q01DX001 (ip), vehicle: saline with Tween-80 93 % of control | dose: 100.0 mg/kg/injection, schedule: Q01DX001 (ip), vehicle: saline 99 % of control
